According to the supplement of paper PMC10307832:

These cell lines were tested with CN1CCN(CC1)C2=CC(=C(C=C2)NC3=NC=C4C(=N3)N(C5=CC=CC=C5C(=O)N4C)C)OC [XMD8-85] + CC(=O)c1c(C)c2cnc(Nc3ccc(N4CCNCC4)cn3)nc2n(C2CCCC2)c1=O [Palbociclib] (partner 0.5 µM) (assay: relative viability (nuclei count vs DMSO), 5 days (fraction); higher = more cells survive). Conditions: first compound 0.08 µM.
Method in brief: (§1)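 One day after seeding in 1536-well plates, lung cancer cell lines were dosed by pin tool. Dosing was either single-drug or a fixed anchor-drug dose plus five library-drug doses (not always all listed) in √10 steps. After 5 days, nuclei were stained in one fix-and-stain step and counted on 4× images, and relative viability is the nuclei count of treated wells over that of vehicle wells, given as the median of duplicate plates.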

In order of rising relative viability:
1. NCI-H460  0.129
2. NCI-H520  0.181
3. NCI-H2009  0.198
4. NCI-H2087  0.205
5. NCI-H838  0.224
6. NCI-H650  0.275
7. NCI-H1437  0.295
8. NCI-H1650  0.296
9. NCI-H1734  0.315
10. NCI-H1944  0.319
11. NCI-H647  0.342
12. NCI-H2023  0.368
13. NCI-H2170  0.38
14. NCI-H1355  0.395
15. NCI-H661  0.401
16. NCI-H2126  0.415
17. NCI-H2085  0.446
18. NCI-H1755  0.47
19. NCI-H1395  0.503
20. NCI-H1651  0.517
21. NCI-H1993  0.564
22. NCI-H1975  0.587
23. NCI-H1666  0.679
24. NCI-H1915  0.721
25. NCI-H522  1.09

Same assay, conditions: first compound 0.253 µM

In order of rising relative viability:
1. NCI-H2087  0.168
2. NCI-H838  0.197
3. NCI-H2009  0.208
4. NCI-H520  0.211
5. NCI-H460  0.221
6. NCI-H1793  0.251
7. NCI-H1437  0.311
8. NCI-H1650  0.317
9. NCI-H1944  0.319
10. NCI-H650  0.32
11. NCI-H647  0.325
12. NCI-H1734  0.329
13. NCI-H1355  0.365
14. NCI-H2170  0.374
15. NCI-H2126  0.394
16. NCI-H2023  0.441
17. NCI-H1755  0.445
18. NCI-H2085  0.452
19. NCI-H1975  0.511
20. NCI-H1915  0.529
21. NCI-H1651  0.534
22. NCI-H1993  0.595
23. NCI-H1395  0.61
24. NCI-H1666  0.656
25. NCI-H727  0.689
26. NCI-H522  1.03

Same assay, conditions: first compound 0.8 µM

In order of rising relative viability:
1. NCI-H460  0.139
2. NCI-H2009  0.184
3. NCI-H520  0.199
4. NCI-H2087  0.222
5. NCI-H838  0.227
6. NCI-H1437  0.289
7. NCI-H650  0.302
8. NCI-H1650  0.318
9. NCI-H1793  0.319
10. NCI-H2023  0.334
11. NCI-H1944  0.362
12. NCI-H2126  0.378
13. NCI-H661  0.4
14. NCI-H647  0.406
15. NCI-H2085  0.419
16. NCI-H1755  0.432
17. NCI-H2170  0.436
18. NCI-H1651  0.475
19. NCI-H1975  0.524
20. NCI-H1915  0.537
21. NCI-H727  0.6
22. NCI-H1666  0.606
23. NCI-H1993  0.612
24. NCI-H1395  0.621
25. NCI-H522  0.822

Same assay, conditions: first compound 2.53 µM

In order of falling relative viability:
1. NCI-H522  0.737
2. NCI-H1993  0.692
3. NCI-H1975  0.651
4. NCI-H1666  0.632
5. NCI-H1355  0.619
6. NCI-H727  0.6
7. NCI-H1915  0.549
8. NCI-H1395  0.54
9. NCI-H647  0.523
10. NCI-H2085  0.475
11. NCI-H1651  0.468
12. NCI-H1755  0.449
13. NCI-H661  0.443
14. NCI-H2023  0.411
15. NCI-H1734  0.384
16. NCI-H2170  0.383
17. NCI-H1793  0.38
18. NCI-H1650  0.353
19. NCI-H1944  0.33
20. NCI-H2126  0.32
21. NCI-H1437  0.309
22. NCI-H650  0.288
23. NCI-H838  0.251
24. NCI-H460  0.223
25. NCI-H520  0.221
26. NCI-H2087  0.217
27. NCI-H2009  0.163

Same assay, conditions: first compound 8 µM

In order of falling relative viability:
1. NCI-H522  0.648
2. NCI-H1666  0.645
3. NCI-H1993  0.61
4. NCI-H1395  0.495
5. NCI-H1651  0.405
6. NCI-H2085  0.397
7. NCI-H1755  0.393
8. NCI-H2126  0.387
9. NCI-H1915  0.371
10. NCI-H661  0.346
11. NCI-H2170  0.332
12. NCI-H1944  0.313
13. NCI-H1355  0.306
14. NCI-H1975  0.296
15. NCI-H647  0.282
16. NCI-H1734  0.281
17. NCI-H650  0.255
18. NCI-H2023  0.246
19. NCI-H1793  0.208
20. NCI-H1437  0.203
21. NCI-H520  0.196
22. NCI-H1650  0.193
23. NCI-H838  0.184
24. NCI-H2087  0.172
25. NCI-H2009  0.154
26. NCI-H460  0.0809

What follows are cell lines tested with CN1CCN(CC1)C2=CC(=C(C=C2)NC3=NC=C4C(=N3)N(C5=CC=CC=C5C(=O)N4C)C)OC [XMD8-85] + COc1cccc2cc(-c3nc([C@H]4CC[C@H](C(=O)O)CC4)n4ncnc(N)c34)[nH]c12 [OSI-027] (partner 0.5 µM) in the same assay as above. Conditions: first compound 0.08 µM.
Method in brief: as §1

In order of rising relative viability:
1. NCI-H520  0.245
2. NCI-H2023  0.314
3. NCI-H1793  0.317
4. NCI-H1355  0.385
5. NCI-H838  0.386
6. NCI-H1944  0.391
7. NCI-H1993  0.516
8. NCI-H1975  0.53
9. NCI-H460  0.557
10. NCI-H650  0.564
11. NCI-H647  0.568
12. NCI-H1734  0.579
13. NCI-H2009  0.589
14. NCI-H2126  0.603
15. NCI-H2087  0.612
16. NCI-H1915  0.622
17. NCI-H727  0.631
18. NCI-H661  0.636
19. NCI-H522  0.659
20. NCI-H1650  0.674
21. NCI-H2170  0.676
22. NCI-H1755  0.677
23. NCI-H2085  0.712
24. NCI-H1651  0.752
25. NCI-H1395  0.754
26. NCI-H1666  0.816
27. NCI-H1437  0.862

Same assay, conditions: first compound 0.253 µM

In order of rising relative viability:
1. NCI-H520  0.257
2. NCI-H1793  0.259
3. NCI-H1355  0.43
4. NCI-H2023  0.434
5. NCI-H1944  0.442
6. NCI-H1993  0.454
7. NCI-H838  0.463
8. NCI-H1650  0.47
9. NCI-H650  0.527
10. NCI-H2087  0.586
11. NCI-H460  0.626
12. NCI-H1395  0.64
13. NCI-H1915  0.648
14. NCI-H1734  0.664
15. NCI-H1975  0.678
16. NCI-H647  0.681
17. NCI-H2170  0.685
18. NCI-H1651  0.695
19. NCI-H2126  0.696
20. NCI-H2009  0.704
21. NCI-H661  0.709
22. NCI-H522  0.747
23. NCI-H727  0.772
24. NCI-H1755  0.787
25. NCI-H1437  0.876
26. NCI-H1666  0.876
27. NCI-H2085  0.969

Same assay, conditions: first compound 0.8 µM

In order of falling relative viability:
1. NCI-H1437  0.902
2. NCI-H460  0.901
3. NCI-H1666  0.893
4. NCI-H1975  0.807
5. NCI-H661  0.775
6. NCI-H2126  0.739
7. NCI-H2170  0.739
8. NCI-H727  0.705
9. NCI-H2085  0.697
10. NCI-H1651  0.676
11. NCI-H647  0.667
12. NCI-H1395  0.667
13. NCI-H522  0.66
14. NCI-H1915  0.651
15. NCI-H1755  0.645
16. NCI-H2009  0.638
17. NCI-H1993  0.636
18. NCI-H1734  0.609
19. NCI-H1650  0.599
20. NCI-H2087  0.582
21. NCI-H650  0.467
22. NCI-H1944  0.461
23. NCI-H1355  0.403
24. NCI-H2023  0.402
25. NCI-H838  0.343
26. NCI-H1793  0.243
27. NCI-H520  0.232

Same assay, conditions: first compound 2.53 µM

In order of rising relative viability:
1. NCI-H520  0.257
2. NCI-H1793  0.286
3. NCI-H838  0.346
4. NCI-H2023  0.37
5. NCI-H1355  0.448
6. NCI-H650  0.492
7. NCI-H2009  0.508
8. NCI-H1944  0.514
9. NCI-H727  0.535
10. NCI-H1993  0.548
11. NCI-H647  0.602
12. NCI-H1650  0.637
13. NCI-H2085  0.64
14. NCI-H1651  0.647
15. NCI-H1395  0.664
16. NCI-H1915  0.672
17. NCI-H2087  0.686
18. NCI-H1734  0.699
19. NCI-H460  0.731
20. NCI-H1975  0.762
21. NCI-H661  0.806
22. NCI-H522  0.828
23. NCI-H1437  0.852
24. NCI-H2126  0.855
25. NCI-H1666  0.907

Same assay, conditions: first compound 8 µM

In order of rising relative viability:
1. NCI-H520  0.195
2. NCI-H460  0.239
3. NCI-H2023  0.248
4. NCI-H1793  0.276
5. NCI-H1944  0.297
6. NCI-H1355  0.309
7. NCI-H2009  0.324
8. NCI-H650  0.338
9. NCI-H838  0.339
10. NCI-H1650  0.357
11. NCI-H727  0.359
12. NCI-H1734  0.425
13. NCI-H1975  0.445
14. NCI-H2085  0.474
15. NCI-H1395  0.489
16. NCI-H1915  0.507
17. NCI-H661  0.515
18. NCI-H1755  0.531
19. NCI-H1993  0.552
20. NCI-H2087  0.552
21. NCI-H1437  0.595
22. NCI-H522  0.596
23. NCI-H2126  0.624
24. NCI-H1651  0.638
25. NCI-H1666  0.679
26. NCI-H647  0.685
